Values quoted from earlier work, collected in US11246819B2, “Compositions and methods for inhibiting biofilm deposition and production” (THE TRUSTEES OF THE UNIVERSITY OF PENNSYLVANIA, priority 2016, dated 2022).
Where no end group is shown, it is not given here.

B1: mutanase from Paenibacillus sp. strain RM1: bacterial mutanase, codon optimized for chloroplast expression (SEQ ID NO: 1) (protein)
chain: AGGPNLTPGKPITASGQSQTYSPQNVKDGNQNTYWESTNNAFPQWIQVDLGASTGIDQIVLKLPASWEARTQTLAVQGSLNGSTFTDIVGSANYVFSPSVGNNTVTINFTATSTRYVRLYVTANTGWPAAQLSEFEIYGSGDQTPAPDTYQAESAALSGGAKVNTDHAGYIGTGFVDGYWTQGATTTFSVNAPTAGNYDVTLRYGNATGSNKTVSLYVNGAKIRQTTLPSLPNWDSWSSKTETLNLNAGSNTIAYKYDPGDSGNVNLDQITVEASTSTPTPTPSPTPTPTPTPTPTPTPTPTPTPTPTPTPTPTPTPTPTPPPGGNIAIGKSISASSHTQTYVAENANDNDVNTYWEGGGNPSTLTLDLGANYNITSIVLKLNPSSIWAARTQTIQVLGHDQNTTTFSNLVSAKSYSFDPASGNTVTIPVTATVKRLQLNITSNSGAPAGQVAEFQVFGTPAPNPDLTITGMSWSPSSPVETDAITLNATVKNNGNASAAATTVNFYLNNELAGSAPVAALAAGASATVPLNVGAKTAATYAVGAKVDESNAVIELNESNNSYTNPASLVVAPVSSSDLVGTVSWTPSTPIANNAVSFNVNLKNQGTIASAGGSHGVTVVLKNASGSTVQTFSGSYTGSLAPGASVNITLPGTWTAAAGSYTVTATVAADANELPIKQANNANTASLTVYSARGASMPYSRYDTEDATLGGGATLKSAPTFDQALTASEATGQLYAALPSNGSYLQWTVRQGQGGAGVTMRFTMPDSADGMGLNGSLDVYVNGTKVKTVSLTSYYSWQYFSGDMPGDAPSAGRPLFRFDEVHWKLDTPLKPGDTIRIQKNNGDSLEYGVDFIEIEPVPAAISRPANSVSVTDYGAVPNDGQDDLTAFKAAVNAAVASDKILYIPEGTFHLGNMWEIGSVSNMIDHITITGAGIWYTNIQFTNANPASGGISLRITGKLDFSNVYLNSNLRSRYGQNAVYKGFMDNFGTNSVIRDVWVEHFECGFWVGDYGHTPAIRASGLLIENSRIRNNLADGVNFAQGTSNSTVRNSSLRNNGDDALAVWTSNTNGAPEGVNNTFSYNTIENNWRAGGIAFFGGSGHKADHNYIVDCVGGSGIRMNTVFPGYHFQNNTGIVFSDTTIVNCGTSKDLYNGERGAIDLEASNDAIRNVTFTNIDIINSQRDAIQFGYGGGFTNIVFNNININGTGLDGVTTSRFSGPHLGAAIFTYTGNGSATFNNLRTSNIAYPNLYYIQSGFNLIINNHHHHHH
modifications: codon optimized mutanase

Tests used:
biofilm = details: 3 min incubation with biofilms, mutanase removed, then 6 hr incubation

Molecule | entry into human mast cells and degranulation (human mast cells) | potency when linearized | biofilm degradation (biofilm)
protegrin: cysteine-rich, 18-residue β-sheet antimicrobial peptide (RGGRLCYCRRRFCVCVGR; not fully specified (bridges); ends and bridges not checked; UniProt P32194 131-148, looked up) | enter human mast cells and induce degranulation | lost potency | –
retrocyclin | enter human mast cells and induce degranulation | – | –
B1 | – | – | effectively degraded
